One data set can be described thus: RP, Agilent ZORBAX RRHD Eclipse Plus C18, 50 × 2.1 mm, 1.8 µm, 30 °C, 0.4 mL/min, estimated dead time 0.28 min; A: water + 0.1% formic acid, pH 3; B: acetonitrile + 0.1% formic acid, pH 3; gradient (min/%B) 0/1 5/10 8/25 9.1/99 10/99 12/1. As to conditions: stereoisomer not certain.
As to `O=C(O)Cc1ccc(O)c(O)c1` [3,4-Dihydroxyphenylacetic acid], the LC retention time was 3.6 min.

Regarding `O=C(O)c1ccc(O)cc1O` [2,4-Dihydroxybenzoic acid], the LC retention time is 5.18 min.

Turning to `O=C(O)c1ccccc1` [Benzoic acid], the LC retention time was 7.44 min.

Regarding `COc1cc(CC(=O)O)ccc1O` [Homovanillic acid], the LC retention time is 5.94 min.

For the molecule `O=Cc1ccc(O)cc1` [4-Hydroxybenzaldehyde], the LC retention time is 5.23 min.

On to `O=C(O)c1cccc(O)c1O` [2,3-Dihydroxybenzoic acid], for which the LC retention time is 5.18 min.

For the molecule `O=C(O)c1ccccc1O` [Salicylic acid], the LC retention time was 8.13 min.

Take `COc1cc(C=CC(=O)O)cc(OC)c1O` [Sinapic acid]: the LC retention time is 7.6 min.

Another data set in a line: RP, 150 × 2.1 mm, 2.6 µm, 40 °C, 0.35 mL/min, estimated dead time 0.94 min; A: water + 0.1% formic acid, pH 3; B: acetonitrile + 0.1% formic acid, pH 3; gradient (min/%B) 0/0 1/5 7/45 8.5/80 10.5/80 11/5 12/5. As to conditions: stereoisomer not certain.
On to `O=C(O)Cc1ccc(O)c(O)c1` [3,4-Dihydroxyphenylacetic acid], for which the LC retention time is 7.28 min.

As to `COc1cc(C=CC(=O)O)cc(OC)c1O` [Sinapic acid], the LC retention time is 2.79 min.

A further data set can be described thus: RP, Waters ACQUITY UPLC BEH Shield RP18, 150 × 2.1 mm, 1.7 µm, 40 °C, 0.4 mL/min, estimated dead time 0.83 min; A: water + 0.1% formic acid, pH 3; B: acetonitrile + 0.1% formic acid, pH 3; gradient (min/%B) 0/0 30/50 31/100 37/100 37.1/0. The following applies: stereoisomer not certain.
Consider `COc1cc(CC(=O)O)ccc1O` [Homovanillic acid], for which the LC retention time is 10.3 min.

On to `O=C(O)c1ccccc1O` [Salicylic acid], for which the LC retention time was 12.8 min.

In the case of `O=C(CCc1ccc(O)cc1)c1c(O)cc(O)cc1OC1OC(CO)C(O)C(O)C1O` (stereo not drawn) [Phloridzin], the LC retention time is 14.2 min.

For `COc1cc(C=CC(=O)O)cc(OC)c1O` [Sinapic acid], the LC retention time was 11.1 min.

Another data set in a line: RP, Phenomenex Luna C18, 150 × 4.6 mm, 3 µm, 25 °C, 0.5 mL/min, estimated dead time 3.2 min; A: water + 0.1% formic acid, pH 3; B: acetonitrile + 0.1% formic acid, pH 3; gradient (min/%B) 0/0 30/30 35/40 50/80 52/80 60/0 65/0. The following applies: stereoisomer not certain.
Consider `COc1cc(CC(=O)O)ccc1O` [Homovanillic acid], for which the LC retention time was 16.4 min.

For the molecule `COc1cc(C=CC(=O)O)cc(OC)c1O` [Sinapic acid], the LC retention time was 25.1 min.

The next data set is described as follows: RP, Phenomenex Synergi Hydro-RP, 150 × 2 mm, 4 µm, 30 °C, 0.5 mL/min, estimated dead time 0.6 min; A: water + 0.1% formic acid, pH 3; B: acetonitrile + 0.1% formic acid, pH 3; gradient (min/%B) 0/5 1/5 35/45 40/100 45/100. As to conditions: stereoisomer not certain.
As to `COc1cc(CC(=O)O)ccc1O` [Homovanillic acid], the LC retention time is 10.2 min.

With `COc1cc(C=CC(=O)O)cc(OC)c1O` [Sinapic acid], the LC retention time was 15.2 min.

The nature of a further data set: Other, Phenomenex Kinetex PFP, 100 × 4.6 mm, 2.6 µm, 35 °C, 1.5 mL/min, estimated dead time 0.71 min; A: water + 0.1% trifluoroacetic acid, pH 2; B: acetonitrile + 0.1% trifluoroacetic acid, pH 2; gradient (min/%B) 0/1 7/7.5 14/7.6 17/10 18.5/12 20/12.5 24/30 25/90 25.1/1 32/1. As to conditions: stereoisomer not certain.
With `O=C(O)Cc1ccc(O)c(O)c1` [3,4-Dihydroxyphenylacetic acid], the LC retention time is 15.3 min.

Consider `O=C(O)c1ccc(O)cc1O` [2,4-Dihydroxybenzoic acid], for which the LC retention time was 10.9 min.

On to `O=C(O)c1ccccc1` [Benzoic acid], for which the LC retention time is 15.4 min.

`COc1cc(CC(=O)O)ccc1O` [Homovanillic acid]: the LC retention time is 18.8 min.

For the molecule `O=Cc1ccc(O)cc1` [4-Hydroxybenzaldehyde], the LC retention time was 9.81 min.

Turning to `O=C(O)c1cccc(O)c1O` [2,3-Dihydroxybenzoic acid], the LC retention time is 9.73 min.

`O=C(O)c1ccccc1O` [Salicylic acid]: the LC retention time is 18.9 min.

Consider `O=C(CCc1ccc(O)cc1)c1c(O)cc(O)cc1OC1OC(CO)C(O)C(O)C1O` (stereo not drawn) [Phloridzin], for which the LC retention time was 24.6 min.

For `COc1cc(C=CC(=O)O)cc(OC)c1O` [Sinapic acid], the LC retention time was 22.3 min.

Another data set can be described thus: RP, Merck Supelco SUPELCOSIL LC-C18, 250 × 4.6 mm, 5 µm, 40 °C, 1 mL/min, estimated dead time 2.6 min; A: water + 0.1% trifluoroacetic acid, pH 2; B: acetonitrile + 0.1% trifluoroacetic acid, pH 2; gradient (min/%B) 0/5 45/35 47/75 49/35 50/5. As to conditions: stereoisomer not certain.
`O=C(CCc1ccc(O)cc1)c1c(O)cc(O)cc1OC1OC(CO)C(O)C(O)C1O` (stereo not drawn) [Phloridzin]: the LC retention time is 30.8 min.

For the molecule `COc1cc(C=CC(=O)O)cc(OC)c1O` [Sinapic acid], the LC retention time was 23.3 min.

A short description of another data set: RP, Waters ACQUITY UPLC HSS T3, 100 × 2.1 mm, 1.8 µm, 30 °C, 0.4 mL/min, estimated dead time 0.55 min; A: water + 0.1% formic acid, pH 3; B: acetonitrile + 0.1% formic acid, pH 3; gradient (min/%B) 0/0 2/0 15/100 22/100 22.1/0 26/0. The following applies: stereoisomer not certain.
For the molecule `COc1cc(CC(=O)O)ccc1O` [Homovanillic acid], the LC retention time was 8.67 min.

In the case of `O=C(O)c1ccccc1O` [Salicylic acid], the LC retention time was 10.5 min.

Turning to `O=C(CCc1ccc(O)cc1)c1c(O)cc(O)cc1OC1OC(CO)C(O)C(O)C1O` (stereo not drawn) [Phloridzin], the LC retention time is 9.96 min.

Regarding `COc1cc(C=CC(=O)O)cc(OC)c1O` [Sinapic acid], the LC retention time was 9.44 min.

The next data set in a line: RP, 150 × 2.1 mm, 2.6 µm, 40 °C, 0.35 mL/min, estimated dead time 0.94 min; A: water + 0.1% formic acid, pH 3; B: acetonitrile + 0.1% formic acid, pH 3; gradient (min/%B) 0/0 1/0 12.5/100 14/100 14.2/0 15/0. The following applies: stereoisomer not certain.
In the case of `O=C(O)Cc1ccc(O)c(O)c1` [3,4-Dihydroxyphenylacetic acid], the LC retention time is 7.07 min.

For `COc1cc(C=CC(=O)O)cc(OC)c1O` [Sinapic acid], the LC retention time is 2.81 min.

The nature of a further data set: RP, Waters Atlantis T3, 100 × 2.1 mm, 3 µm, 40 °C, 0.3 mL/min, estimated dead time 0.73 min; A: water + 0.1% trifluoroacetic acid, pH 2; B: acetonitrile + 0.1% trifluoroacetic acid, pH 2; gradient (min/%B) 0/10 1/10 6/40 7/50 8/50 14/70 16/80 20/10 25/10. As to conditions: stereoisomer not certain.
Take `O=C(O)c1ccc(O)cc1O` [2,4-Dihydroxybenzoic acid]: the LC retention time is 5.01 min.

In the case of `O=C(O)c1cccc(O)c1O` [2,3-Dihydroxybenzoic acid], the LC retention time is 4.79 min.

For `O=C(CCc1ccc(O)cc1)c1c(O)cc(O)cc1OC1OC(CO)C(O)C(O)C1O` (stereo not drawn) [Phloridzin], the LC retention time was 8.22 min.
